Measurements published in US20260159486A1, “BENZO[H]QUINAZOLINE-4-AMINE DERIVATIVES FOR THE TREATMENT OF CANCER” (Redona Therapeutics, Inc., priority 2021, published 2026).

Columns and labels:
recombinant human CLK3 = target: T1, recombinant human CLK3 (Homo sapiens, UniProt P49761); assay: CLK3 kinase assay (LANCE Ultra); format: biochemical; conditions: CLK3 0.5 nM, ATP 300 μM, 3 hours at 30° C.
T1 construct: purchased Thermo Fisher Scientific PV3826
Summary of the method: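 Recombinant human CLK3 (0.5 nM) with ULight-CREBtide (50 nM) and 300 μM ATP, 3 h at 30 °C in kinase buffer; EDTA stop, then Eu-anti-phospho-CREB antibody (2 nM, 1 h RT), TR-FRET read at 665/620 nm. Inhibition normalized to DMSO and no-ATP wells; IC50 from 4-parameter fit, ten 1:3 concentrations in duplicate.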

MDA-MB-231 cells = assay: MDA-MB-231 proliferation assay; format: cell-based; conditions: Homo sapiens, MDA-MB-231, 72 h, YO-PRO-1 Iodide readout
Summary of the method: (§1)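 Cells seeded at 750 per well, treated next day for 72 h at 37 °C with 0.5% final DMSO. Cell number read by YO-PRO-1 fluorescence after lysis, normalized to DMSO (100%) and time-zero cells (0%). GI50 from 4-parameter logistic fit, maximum constrained to 100%.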

CAL-51 cells = assay: CAL-51 proliferation assay; format: cell-based; conditions: Homo sapiens, CAL-51, 72 h, YO-PRO-1 Iodide readout
Summary of the method: as §1

T1 sequence (P49761 whole entry): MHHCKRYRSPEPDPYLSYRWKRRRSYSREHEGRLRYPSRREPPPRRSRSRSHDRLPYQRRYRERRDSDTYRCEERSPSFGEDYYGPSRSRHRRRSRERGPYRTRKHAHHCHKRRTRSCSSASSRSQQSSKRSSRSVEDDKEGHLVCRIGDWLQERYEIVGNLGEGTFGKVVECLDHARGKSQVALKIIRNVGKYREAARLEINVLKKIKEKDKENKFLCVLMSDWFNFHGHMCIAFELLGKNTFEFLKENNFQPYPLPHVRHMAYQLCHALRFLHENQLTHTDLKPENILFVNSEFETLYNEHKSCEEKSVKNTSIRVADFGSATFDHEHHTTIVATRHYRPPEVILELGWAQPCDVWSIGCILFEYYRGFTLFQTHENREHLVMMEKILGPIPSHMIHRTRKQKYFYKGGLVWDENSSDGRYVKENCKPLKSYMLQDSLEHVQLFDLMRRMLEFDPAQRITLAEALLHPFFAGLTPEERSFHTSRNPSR

Row | SMILES | IC50 (recombinant human CLK3) [nM] | GI50 (MDA-MB-231 cells) [nM] | GI50 (CAL-51 cells) [nM]
1 | CN(CC#N)C(=O)c1c(O[C@H]2CC[C@H](N)CC2)ccc2c1CC(C)(C)c1c(N)ncnc1-2 [Example 94, 4-amino-8-(trans-4-aminocyclohexoxy)-N-(cyanomethyl)-N,5,5-trimethyl-6H-benzo[h]quinazoline-7-carboxamide] | 101 to 1000 | > 2000 | 100 to 2000
2 | COc1ccc2c(c1N(C)CCC#N)CC(C)(C)c1c(N)ncnc1-2 [Example 95, 3-[(4-amino-8-methoxy-5,5-dimethyl-6H-benzo[h]quinazolin-7-yl)-methyl-amino]propanenitrile] | < 30 | < 100 | < 100
3 | CN(CCC#N)c1c(O[C@H]2CC[C@H](N(C)C)CC2)ccc2c1CC(C)(C)c1c(N)ncnc1-2 [Example 96] | < 30 | < 100 | < 100
4 | CC(CCC#N)c1c(O[C@H]2CC[C@H](N)CC2)ccc2c1CC(C)(C)c1c(N)ncnc1-2 (stereo partly drawn) [Example 97, 4-[4-amino-8-(trans-4-aminocyclohexoxy)-5,5-dimethyl-6H-benzo[h]quinazolin-7-yl]pentanenitrile] | < 30 | < 100 | < 100
5 | C/C(=C\CO)c1c(O[C@H]2CC[C@H](N)CC2)ccc2c1CC(C)(C)c1c(N)ncnc1-2 [Example 98, (E)-3-[4-amino-8-(trans-4-aminocyclohexoxy)-5,5-dimethyl-6H-benzo[h]quinazolin-7-yl]but-2-en-1-ol] | < 30 | 100 to 2000 | < 100
6 | CN[C@H]1CC[C@H](Oc2ccc3c(c2N(C)CCC#N)CC(C)(C)c2c(N)ncnc2-3)CC1 [Example 99, 3-[[4-amino-5,5-dimethyl-8-[trans-4-(methylamino)cyclohexoxy]-6H-benzo[h]quinazolin-7-yl]-methyl-amino]propanenitrile] | < 30 | < 100 | < 100
7 | CCCCN(C)c1c(O[C@H]2CC[C@H](N)CC2)ccc2c1CC(C)(C)c1c(N)ncnc1-2 [Example 100, 8-(trans-4-aminocyclohexoxy)-N7-butyl-N7,5,5-trimethyl-6H-benzo[h]quinazoline-4,7-diamine] | 101 to 1000 | 100 to 2000 | 100 to 2000
8 | CN(Cc1ccncc1)c1c(O[C@H]2CC[C@H](N)CC2)ccc2c1CC(C)(C)c1c(N)ncnc1-2 [Example 101, 8-(trans-4-aminocyclohexoxy)-N7,5,5-trimethyl-N7-(4-pyridylmethyl)-6H-benzo[h]quinazoline-4,7-diamine] | 101 to 1000 | 100 to 2000 | 100 to 2000
9 | CC(C)N(C)c1c(O[C@H]2CC[C@H](N)CC2)ccc2c1CC(C)(C)c1c(N)ncnc1-2 [Example 102, 8-(trans-4-aminocyclohexoxy)-N7-isopropyl-N7,5,5-trimethyl-6H-benzo[h]quinazoline-4,7-diamine] | < 30 | 100 to 2000 | < 100
10 | CN(Cc1c[nH]cn1)c1c(O[C@H]2CC[C@H](N)CC2)ccc2c1CC(C)(C)c1c(N)ncnc1-2 [Example 103, 8-(trans-4-aminocyclohexoxy)-N7-(1H-imidazol-4-ylmethyl)-N7,5,5-trimethyl-6H-benzo[h]quinazoline-4,7-diamine] | 30 to 100 | 100 to 2000 | 100 to 2000
11 | CC(C)CCN(C)c1c(O[C@H]2CC[C@H](N)CC2)ccc2c1CC(C)(C)c1c(N)ncnc1-2 [Example 104, 8-(trans-4-aminocyclohexoxy)-N7-isopentyl-N7,5,5-trimethyl-6H-benzo[h]quinazoline-4,7-diamine] | 101 to 1000 | > 2000 | 100 to 2000
12 | CN(Cc1cocn1)c1c(O[C@H]2CC[C@H](N)CC2)ccc2c1CC(C)(C)c1c(N)ncnc1-2 [Example 105, 8-(trans-4-aminocyclohexoxy)-N7,5,5-trimethyl-N7-(oxazol-4-ylmethyl)-6H-benzo[h]quinazoline-4,7-diamine] | 101 to 1000 | 100 to 2000 | 100 to 2000
13 | CC(C)CN(C)c1c(O[C@H]2CC[C@H](N)CC2)ccc2c1CC(C)(C)c1c(N)ncnc1-2 [Example 106, 8-(trans-4-aminocyclohexoxy)-N7-isobutyl-N7,5,5-trimethyl-6H-benzo[h]quinazoline-4,7-diamine] | 30 to 100 | 100 to 2000 | 100 to 2000
14 | CN(Cc1cccnc1)c1c(O[C@H]2CC[C@H](N)CC2)ccc2c1CC(C)(C)c1c(N)ncnc1-2 [Example 107, 8-(trans-4-aminocyclohexoxy)-N7,5,5-trimethyl-N7-(3-pyridylmethyl)-6H-benzo[h]quinazoline-4,7-diamine] | 101 to 1000 | 100 to 2000 | 100 to 2000
15 | CC1(C)Cc2c(ccc(O[C@H]3CC[C@H](N)CC3)c2SCCC#N)-c2ncnc(N)c21 [Example 108, 3-[[4-amino-8-(trans-4-aminocyclohexoxy)-5,5-dimethyl-6H-benzo[h]quinazolin-7-yl]sulfanyl]propanenitrile] | < 30 | 100 to 2000 | < 100
16 | CN(CCC#N)c1cccc2c1CC(C)(C)c1c(N)ncnc1-2 [Example 109, 3-[(4-amino-5,5-dimethyl-6H-benzo[h]quinazolin-7-yl)-methyl-amino]propanenitrile] | 30 to 100 | 100 to 2000 | < 100
17 | CN(CC(C)(C)CO)c1c(O[C@H]2CC[C@H](N)CC2)ccc2c1CC(C)(C)c1c(N)ncnc1-2 [Example 110, 3-[[4-amino-8-(trans-4-aminocyclohexoxy)-5,5-dimethyl-6H-benzo[h]quinazolin-7-yl]-methyl-amino]-2,2-dimethyl-propan-1-ol] | < 30 | 100 to 2000 | < 100
18 | CN(CCC(C)(C)O)c1c(O[C@H]2CC[C@H](N)CC2)ccc2c1CC(C)(C)c1c(N)ncnc1-2 [Example 111, 4-[[4-amino-8-(trans-4-aminocyclohexoxy)-5,5-dimethyl-6H-benzo[h]quinazolin-7-yl]-methyl-amino]-2-methyl-butan-2-ol] | 101 to 1000 | 100 to 2000 | 100 to 2000
19 | CC1(C)Cc2c(ccc(O[C@H]3CC[C@H](N)CC3)c2S(=O)(=O)CCC#N)-c2ncnc(N)c21 [Example 112, 3-[[4-amino-8-(trans-4-aminocyclohexoxy)-5,5-dimethyl-6H-benzo[h]quinazolin-7-yl]sulfonyl]propanenitrile] | 30 to 100 | > 2000 | 100 to 2000
20 | CN(CC#N)S(=O)(=O)c1c(O[C@H]2CC[C@H](N)CC2)ccc2c1CC(C)(C)c1c(N)ncnc1-2 [Example 113, 4-amino-8-(trans-4-aminocyclohexoxy)-N-(cyanomethyl)-N,5,5-trimethyl-6H-benzo[h]quinazoline-7-sulfonamide] | 30 to 100 | 100 to 2000 | 100 to 2000
21 | CN(c1c(O[C@H]2CC[C@H](N)CC2)ccc2c1CC(C)(C)c1c(N)ncnc1-2)S(=O)(=O)c1ccc(F)cc1 [Example 114, N-[4-amino-8-(trans-4-aminocyclohexoxy)-5,5-dimethyl-6H-benzo[h]quinazolin-7-yl]-4-fluoro-N-methyl-benzenesulfonamide] | < 30 | < 100 | < 100
22 | CN(CCC#N)c1c(Br)ccc2c1CC(C)(C)c1c(N)ncnc1-2 [Example 115, 3-[(4-amino-8-bromo-5,5-dimethyl-6H-benzo[h]quinazolin-7-yl)-methyl-amino]propanenitrile] | < 30 | 100 to 2000 | < 100
23 | CC1(C)Cc2c(ccc(O[C@H]3CC[C@H](N)CC3)c2S(=O)(=O)NCC#N)-c2ncnc(N)c21 [Example 116, 4-amino-8-(trans-4-aminocyclohexoxy)-N-(cyanomethyl)-5,5-dimethyl-6H-benzo[h]quinazoline-7-sulfonamide] | 30 to 100 | 100 to 2000 | 100 to 2000
24 | CC1(C)Cc2c(ccc3c2N(CCC#N)CCO3)-c2ncnc(N)c21 [Example 117, 3-(7-amino-6,6-dimethyl-3,5-dihydro-2H-quinazolino[7,8-f][1,4]benzoxazin-4-yl)propanenitrile] | 30 to 100 | 100 to 2000 | < 100
25 | CN1CCN(c2ccc3c(c2N(C)CCC#N)CC(C)(C)c2c(N)ncnc2-3)CC1 [Example 118, 3-[[4-amino-5,5-dimethyl-8-(4-methylpiperazin-1-yl)-6H-benzo[h]quinazolin-7-yl]-methyl-amino]propanenitrile] | < 30 | < 100 | < 100
26 | CC1(C)Cc2c(ccc(O[C@H]3CC[C@H](N)CC3)c2N2CCCS2(=O)=O)-c2ncnc(N)c21 [Example 119, 8-(trans-4-aminocyclohexoxy)-7-(1,1-dioxo-1,2-thiazolidin-2-yl)-5,5-dimethyl-6H-benzo[h]quinazolin-4-amine] | < 30 | 100 to 2000 | 100 to 2000
27 | CC1(C)Cc2c(ccc(Br)c2N2CCC(C#N)C2)-c2ncnc(N)c21 (stereo not drawn) [Example 120, 1-(4-amino-8-bromo-5,5-dimethyl-6H-benzo[h]quinazolin-7-yl)pyrrolidine-3-carbonitrile] | 101 to 1000 | 100 to 2000 | 100 to 2000
28 | CC1(C)Cc2c(ccc(Br)c2NC[C@@H]2CNC(=O)O2)-c2ncnc(N)c21 [Example 121, (5R)-5-[[(4-amino-8-bromo-5,5-dimethyl-6H-benzo[h]quinazolin-7-yl)amino]methyl]oxazolidin-2-one] | < 30 | < 100 | < 100
